The structures appear in SMILES notation.

The source of these data is patent US20110217715A1, “GENE EXPRESSION IN DUCHENNE MUSCULAR DYSTROPHY” (CHILDREN'S HOSPITAL MEDICAL CENTER, priority 2008, published 2011).

Series [1] relates to mRNA expression in peripheral blood of individuals with DMD. Briefly: Whole-blood gene expression microarray: DMD administered prednisone or deflazacort vs DMD not administered steroid. Format: in vivo, human. The procedure:
Fifteen ml of blood was collected from each individual into 6 PAXgene® Vacutainer® tubes (PreAnalytiX, Germany) by antecubital fossa venipuncture. PAXgene® tubes contain a proprietary reagent that immediately stabilizes RNA, thus reducing RNA degradation and minimizing gene expression changes following phlebotomy. The tubes were then inverted 20 times, then remained undisturbed for 2 h at room temperature (about 19° C. to about 22° C.), and then stored at -70° C. until processed. Total RNA was isolated using the Paxgene® blood RNA kit (PreAnalytiX, Germany) according to the manufacturers instructions. The RNA isolated is from all cells in whole blood. […] Sample labeling, hybridization to chips, and image scanning were performed using standard Affymetrix protocols. For each whole blood sample from control individuals and individuals with DMD, total RNA was labeled using the One-Cycle Target Labeling protocol and hybridized to the arrays. […] Double-stranded cDNA synthesis, biotin-labeled cRNA synthesis, and cRNA fragmentation were performed according to the Affymetrix GeneChip Eukaryotic Expression Analysis protocol. […] After hybridization, the array was washed and stained. […] After scanning the array, the raw probe level values for each probe were saved in Affymetrix.cel files. […] Statistical analyses, including t-test analyses, unsupervised hierarchical clustering, and principal component analyses were conducted using Genespring 7.2 software ([…]® 7, Silicon Genetics, Redwood City Calif.). […] Corrections for multiple comparisons used a Benjamini-Hochberg False Discovery Rate (FDR) of 0.05, disclosed in Tang et al., J Cereb Blood Flow Metab 26 (2006) 1089, which is expressly incorporated by reference herein in its entirety. […] Individuals with DMD were evaluated and had been diagnosed by a single board-certified pediatric neurologist. The diagnosis of DMD was based in part upon clinical history, examination findings, and selected muscle biopsies and was confirmed by molecular diagnostic testing. […] Sample processing and array hybridization, probe-level data analysis, and statistical analysis were identical to Example 1.

For a further series, the system named is individuals with DMD. The conditions noted are these: cited from earlier work.
Where [2] appears, read: DMD administered deflazacort or prednisone vs not administered.

As to `CC(=O)OCC(=O)[C@@]12N=C(C)O[C@@H]1C[C@H]1[C@@H]3CCC4=CC(=O)C=C[C@]4(C)[C@H]3[C@@H](O)C[C@@]12C` [deflazacort], in series [1] (setting [2]), the “expression levels of FKBP5” value is given as “up-regulated”; the “expression levels of genes in the chondroitin sulfate biosynthesis pathway” value is “up-regulated”; the “expression levels of haptoglobin and CD163 nucleic acids” value is on record as “up-regulated”; the “expression levels of lactotransferrin and lipocalin” value is listed as “increased expression levels”. Also, the “expression of KFL10” value in series [1] (individuals administered prednisone, deflazacort, or both vs DMD not administered any agent) is recorded as “up-regulated”. For the same molecule, the “side effects / weight gain” value in the series with individuals with DMD (DMD individuals receiving deflazacort, relative to prednisone) is reported as “fewer side effects, in particular, less weight gain”. For the same molecule, the “muscle function and strength” value with individuals with DMD (individuals with DMD) is “improved muscle function and strength”.
